Data taken from patent publication US20100204205A1 (priority 2007, published 2010).
Entries after “also recorded” stand apart in the source; their conditions may differ.

What was measured:
[1] = controlled studies; cited from earlier work
[2] = administered IP or IV; cited from earlier work
[3] = in vivo; cited from earlier work
[4] = Example 1: tolerability study of mirtazapine and betahistine; assay type: in vivo, normal, health subjects; conditions: 6 weeks of therapy, healthy subjects
Method: The subjects receive 2 capsules per day, one in the morning and one at bedtime. […] In a different dosage range, the subjects receive 3 capsules per day, one in the morning, one at noon and one at bedtime. […] In a different dosage range, the subjects receive 2 capsules per day, one in the morning and one at bedtime. […] All medications are administered in an over-encapsulated format that ensures blinding of study participants, staff and investigators. All subjects are scheduled to receive a total of 6 weeks of therapy, and are required to return to the clinics after 1, 2, 4 and 6 weeks of therapy. Patients are required to complete paper self-assessments, electronic diary assessments, computer based cognitive testing, as well as vital signs and weight assessments at the clinic visits.

[5] = system: alpha-1 adrenergic receptors; conditions: cited from earlier work
[6] = biological target: 5HT1B receptors (Homo sapiens, UniProt P28222); conditions: cited from earlier work
5HT1B receptors, sequence (P28222 whole entry): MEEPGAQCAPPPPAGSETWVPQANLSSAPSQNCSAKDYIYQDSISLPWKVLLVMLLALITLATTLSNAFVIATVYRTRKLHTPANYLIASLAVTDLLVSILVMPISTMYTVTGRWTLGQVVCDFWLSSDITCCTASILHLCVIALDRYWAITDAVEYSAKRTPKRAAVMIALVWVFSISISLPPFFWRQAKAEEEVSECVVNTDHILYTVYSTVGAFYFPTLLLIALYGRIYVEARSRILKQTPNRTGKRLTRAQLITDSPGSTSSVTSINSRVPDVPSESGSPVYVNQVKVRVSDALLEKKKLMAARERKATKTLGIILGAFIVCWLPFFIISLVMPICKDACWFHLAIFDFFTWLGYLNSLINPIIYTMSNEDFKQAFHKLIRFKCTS

[7] = biological target: reuptake of 5HT (Homo sapiens, UniProt P31645); conditions: cited from earlier work
reuptake of 5HT, sequence (P31645 whole entry): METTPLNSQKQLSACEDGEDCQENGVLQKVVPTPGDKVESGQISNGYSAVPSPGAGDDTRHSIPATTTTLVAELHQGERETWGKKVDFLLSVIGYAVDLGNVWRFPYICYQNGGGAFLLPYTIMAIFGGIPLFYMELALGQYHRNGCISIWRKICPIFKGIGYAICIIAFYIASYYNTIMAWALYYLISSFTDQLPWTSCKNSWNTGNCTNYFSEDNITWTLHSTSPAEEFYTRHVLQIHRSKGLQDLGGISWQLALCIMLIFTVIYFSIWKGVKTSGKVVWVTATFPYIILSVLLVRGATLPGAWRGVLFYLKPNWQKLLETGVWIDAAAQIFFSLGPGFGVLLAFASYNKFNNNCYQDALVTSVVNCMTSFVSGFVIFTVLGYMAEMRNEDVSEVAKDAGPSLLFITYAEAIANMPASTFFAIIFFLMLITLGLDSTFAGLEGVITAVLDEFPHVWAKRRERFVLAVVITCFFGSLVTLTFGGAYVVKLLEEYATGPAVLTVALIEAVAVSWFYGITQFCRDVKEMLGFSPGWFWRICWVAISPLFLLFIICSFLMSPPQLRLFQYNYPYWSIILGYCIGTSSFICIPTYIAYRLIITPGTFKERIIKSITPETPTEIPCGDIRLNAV

[8] = biological target: histamine H1 receptors (Homo sapiens, UniProt P35367); conditions: cited from earlier work
histamine H1 receptors, sequence (P35367 whole entry): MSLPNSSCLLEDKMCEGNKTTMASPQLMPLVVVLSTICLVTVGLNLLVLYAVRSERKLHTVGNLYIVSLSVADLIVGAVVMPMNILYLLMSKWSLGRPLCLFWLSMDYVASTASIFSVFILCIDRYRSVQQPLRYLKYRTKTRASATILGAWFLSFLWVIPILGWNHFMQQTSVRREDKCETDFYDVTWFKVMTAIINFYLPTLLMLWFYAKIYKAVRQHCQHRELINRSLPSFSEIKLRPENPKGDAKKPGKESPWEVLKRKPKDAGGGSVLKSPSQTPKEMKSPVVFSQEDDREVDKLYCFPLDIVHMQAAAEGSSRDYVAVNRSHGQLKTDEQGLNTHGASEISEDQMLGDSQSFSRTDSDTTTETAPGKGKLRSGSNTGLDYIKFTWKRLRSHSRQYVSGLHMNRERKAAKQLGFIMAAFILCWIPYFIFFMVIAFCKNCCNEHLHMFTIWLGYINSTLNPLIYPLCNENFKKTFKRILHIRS

[9] = biological target: T1, 5HT1A receptors (Homo sapiens, UniProt P08908); conditions: cited from earlier work
T1 sequence (P08908 1-422): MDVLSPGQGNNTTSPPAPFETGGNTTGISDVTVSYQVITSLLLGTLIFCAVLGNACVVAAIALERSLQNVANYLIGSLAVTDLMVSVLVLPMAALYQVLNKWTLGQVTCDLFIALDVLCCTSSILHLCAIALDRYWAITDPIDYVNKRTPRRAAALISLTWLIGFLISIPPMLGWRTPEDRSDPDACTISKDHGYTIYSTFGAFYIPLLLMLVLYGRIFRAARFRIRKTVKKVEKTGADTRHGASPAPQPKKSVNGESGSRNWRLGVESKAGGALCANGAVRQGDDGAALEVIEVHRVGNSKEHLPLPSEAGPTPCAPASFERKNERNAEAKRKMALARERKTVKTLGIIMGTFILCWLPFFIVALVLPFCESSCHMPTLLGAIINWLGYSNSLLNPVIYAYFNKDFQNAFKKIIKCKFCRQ

[10] = system: 5HT2 receptors; conditions: cited from earlier work
[11] = biological target: T2, 5HT2C serotonin receptors (Homo sapiens, UniProt P28335); conditions: cited from earlier work
T2 sequence (P28335 33-458): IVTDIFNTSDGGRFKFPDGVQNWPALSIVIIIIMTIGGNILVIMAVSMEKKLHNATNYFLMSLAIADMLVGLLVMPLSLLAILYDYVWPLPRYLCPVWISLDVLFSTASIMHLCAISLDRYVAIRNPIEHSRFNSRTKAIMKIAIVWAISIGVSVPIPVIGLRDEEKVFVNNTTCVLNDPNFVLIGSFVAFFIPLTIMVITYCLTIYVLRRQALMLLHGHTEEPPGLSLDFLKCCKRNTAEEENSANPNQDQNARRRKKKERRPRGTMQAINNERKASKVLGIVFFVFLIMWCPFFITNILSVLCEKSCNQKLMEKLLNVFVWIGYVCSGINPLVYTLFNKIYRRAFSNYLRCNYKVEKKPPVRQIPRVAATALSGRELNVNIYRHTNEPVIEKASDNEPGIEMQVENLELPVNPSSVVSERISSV

[12] = biological target: T3, 5HT3 serotonin receptors (Homo sapiens, UniProt P46098); conditions: cited from earlier work
T3 sequence (P46098 24-478): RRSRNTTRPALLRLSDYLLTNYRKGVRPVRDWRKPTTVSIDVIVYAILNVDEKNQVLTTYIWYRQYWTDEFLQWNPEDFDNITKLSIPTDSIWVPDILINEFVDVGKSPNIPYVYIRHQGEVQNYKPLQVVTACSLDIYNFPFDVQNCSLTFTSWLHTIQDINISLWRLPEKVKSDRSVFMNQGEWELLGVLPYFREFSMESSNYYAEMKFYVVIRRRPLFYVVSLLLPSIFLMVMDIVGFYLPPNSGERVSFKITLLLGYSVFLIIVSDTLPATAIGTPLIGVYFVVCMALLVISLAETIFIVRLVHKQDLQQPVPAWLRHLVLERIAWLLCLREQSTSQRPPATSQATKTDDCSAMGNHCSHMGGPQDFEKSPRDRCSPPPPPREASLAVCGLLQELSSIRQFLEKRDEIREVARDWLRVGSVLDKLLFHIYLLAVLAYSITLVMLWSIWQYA

[13] = system: alpha-2 receptors; conditions: cited from earlier work
[14] = system: muscarinic cholinergic receptors; conditions: cited from earlier work
[15] = biological target: reuptake of dopamine (Homo sapiens, UniProt Q01959); conditions: cited from earlier work
reuptake of dopamine, sequence (Q01959 whole entry): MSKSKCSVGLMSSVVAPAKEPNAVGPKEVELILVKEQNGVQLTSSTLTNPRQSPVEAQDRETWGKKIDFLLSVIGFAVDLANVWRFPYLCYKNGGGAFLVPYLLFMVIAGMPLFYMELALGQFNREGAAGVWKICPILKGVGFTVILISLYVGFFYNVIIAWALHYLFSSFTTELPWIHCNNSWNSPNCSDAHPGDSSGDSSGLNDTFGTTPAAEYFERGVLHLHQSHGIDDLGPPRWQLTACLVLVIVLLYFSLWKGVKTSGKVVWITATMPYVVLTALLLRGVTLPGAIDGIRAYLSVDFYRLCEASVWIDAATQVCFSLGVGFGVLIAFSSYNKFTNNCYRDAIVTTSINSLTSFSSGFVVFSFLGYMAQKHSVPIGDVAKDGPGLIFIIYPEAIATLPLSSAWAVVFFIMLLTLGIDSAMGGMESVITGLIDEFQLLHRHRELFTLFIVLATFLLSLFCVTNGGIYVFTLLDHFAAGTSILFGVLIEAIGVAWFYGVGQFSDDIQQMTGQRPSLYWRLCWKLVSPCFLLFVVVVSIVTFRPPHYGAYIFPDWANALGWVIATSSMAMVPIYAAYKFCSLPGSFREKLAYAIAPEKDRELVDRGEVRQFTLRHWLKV

[16] = biological target: 5HT2A serotonin receptors (Homo sapiens, UniProt P28223); conditions: cited from earlier work
5HT2A serotonin receptors, sequence (P28223 whole entry): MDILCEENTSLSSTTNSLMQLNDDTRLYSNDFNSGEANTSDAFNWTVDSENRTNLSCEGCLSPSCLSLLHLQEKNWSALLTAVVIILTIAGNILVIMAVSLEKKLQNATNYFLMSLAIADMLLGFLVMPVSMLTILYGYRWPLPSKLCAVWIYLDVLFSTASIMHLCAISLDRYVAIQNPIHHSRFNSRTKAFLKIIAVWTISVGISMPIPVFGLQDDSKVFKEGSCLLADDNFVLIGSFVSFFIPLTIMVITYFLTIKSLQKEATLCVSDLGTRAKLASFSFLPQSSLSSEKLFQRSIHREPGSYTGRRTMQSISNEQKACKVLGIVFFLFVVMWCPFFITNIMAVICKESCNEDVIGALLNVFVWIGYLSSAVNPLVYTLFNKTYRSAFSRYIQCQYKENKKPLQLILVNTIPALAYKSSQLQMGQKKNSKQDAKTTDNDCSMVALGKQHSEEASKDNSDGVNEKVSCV

[17] = biological target: norepinephrine reuptake (Homo sapiens, UniProt P23975); conditions: cited from earlier work
norepinephrine reuptake, sequence (P23975 whole entry): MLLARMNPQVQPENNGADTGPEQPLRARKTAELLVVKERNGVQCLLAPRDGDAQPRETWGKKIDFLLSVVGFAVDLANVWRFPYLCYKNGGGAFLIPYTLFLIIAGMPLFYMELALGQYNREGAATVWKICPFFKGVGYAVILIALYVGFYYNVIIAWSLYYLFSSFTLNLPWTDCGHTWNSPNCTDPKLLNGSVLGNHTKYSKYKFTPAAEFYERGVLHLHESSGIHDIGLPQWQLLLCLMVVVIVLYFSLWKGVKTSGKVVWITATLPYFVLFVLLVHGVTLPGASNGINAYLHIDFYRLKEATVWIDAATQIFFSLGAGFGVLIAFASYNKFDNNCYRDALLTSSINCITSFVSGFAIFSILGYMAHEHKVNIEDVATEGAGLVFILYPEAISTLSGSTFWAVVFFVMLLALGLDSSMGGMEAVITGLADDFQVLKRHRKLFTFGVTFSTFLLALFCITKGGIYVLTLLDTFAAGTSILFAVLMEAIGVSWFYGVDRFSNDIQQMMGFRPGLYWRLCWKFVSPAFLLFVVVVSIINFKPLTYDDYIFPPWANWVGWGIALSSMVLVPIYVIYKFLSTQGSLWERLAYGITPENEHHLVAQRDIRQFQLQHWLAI

CN(C)CCC=C1c2ccccc2CCc2ccccc21 [amitriptyline]
appetite increase reported, share of patients [1]: 6%
weight gain of greater than or equal to 7% of body weight, share of patients [1]: 5.9%

CNCCc1ccccn1 [betahistine, 2-[2-(methylamino)ethyl]pyridine]
food intake [2]: marginally inhibit food intake
satiety signaling [2]: increase the satiety signaling
blood-brain barrier passage [3]: crosses the blood-brain barrier
side effects [4]: causes insomnia, nausea/vomiting, and weight loss

CN1CCN2c3ncccc3Cc3ccccc3C2C1 (centres unmarked) [mirtazapine, 1,2,3,4,10,14b-hexahydro-2-methylpyrazino[2,1-a]pyrido[2,3-c]benzazepine]
antagonist activity at alpha-1 adrenergic receptors [5]: moderate; also recorded: weak antagonist
affinity for the 5HT1B receptors [6]: lacks significant affinity
effect on the reuptake of 5HT [7]: no effect
antagonist activity at histamine H1 receptors [8]: potent antagonist
affinity for the 5HT1A receptors [9]: lacks significant affinity
antagonist activity at 5HT2 receptors [10]: potent antagonist
antagonist activity at 5HT2C serotonin receptors [11]: potent antagonist
antagonist activity at 5HT3 serotonin receptors [12]: potent antagonist
antagonist activity at central alpha-2 receptors [13]: potent antagonist
antagonist activity at muscarinic cholinergic receptors [14]: moderate antagonist; also recorded: weak antagonist
effect on the reuptake of dopamine [15]: no effect
antagonist activity at 5HT2A serotonin receptors [16]: potent antagonist
inhibition of norepinephrine reuptake [17]: very weak inhibitor
side effects [4]: does cause weight gain, sedation, and cognitive deficits
